# Laboratory results from patent US10071077B2, “Use of enoximone in the treatment of atopic immune-related disorders, in pharmaceutical composition as well as in pharmaceutical preparation” (BREAKTHROUGH MEDICAL RESEARCH B.V., priority 2014, dated 2018).
# Key:
# patients with asthma = test: Trials 1-3: treatment of asthma patients with enoximone; type: in vivo, human
# Method: A patient was to be operated in connection with a mammary carcinoma. They had known difficult-to-treat asthma and before the operation they received 30 mg prednisone per day as extra medication in addition to their beta-2 agonists and parasympatholytics treatment, but their breathing remained considerably obstructed. Ten minutes before the start of the anaesthesia they were given 25 mg enoximone intravenously. […] Ultimately, after a single administration of enoximone, they stayed symptom-free for two months. Based on the above experience, a second patient was treated. According to their lung specialist, they suffered from untreatable asthma and had been completely bed-ridden for a long time, among other reasons due to high doses of the traditional medication (next to some other drugs they received 50 mg prednisone per day). Inhalation therapy worked for a few minutes only due to the severe bronchoconstriction, the drying of the airways and the consequential sticky obstructive mucus. The patient received 20 mg enoximone orally in two doses of 10 mg at a 15 minutes interval. […] They remained symptom-free for 7 days. During the first day after the first administration, the patient coughed a lot, which loosened the sticky mucus. After 7 days, they received another 10 mg dose of enoximone orally, after which they again remained symptom-free for 7 days. They were ultimately able to drastically reduce their prednisone use to 5 mg per day (complete phasing out was not possible in connection with their Mixed Connected Tissue Disease). They were able to build up their condition relatively quickly with a maintenance dose of 10 mg of enoximone once every 4 days. After 3 months, they were able to perform their normal household activities again and go back to work. After another month, they were even able to do some sport with caution. Following trials 1 and 2, several patients with light to severe asthma symptoms, who up to that time had been treated exclusively with the traditional therapy with little or no results, were also treated with enoximone. […] Their individual dosage depended on the severity of the disorder. The dosage ranged from 0.1 to 0.3 mg/kg body weight, mostly in a maintenance dosage of twice a week, based on the time of recurrence of the symptoms.
# [1] = tested on: HDM driven allergic airway inflammation; test: House dust mite (HDM) allergic airway inflammation model, treatment strategy 1 (allergy induction); type: in vivo, C57bl/6 mice
# Method: To induce airway inflammation, mice were anaesthetized with isofluorane and treated intratracheally (i.t.) with 1-10 μg house dust mite (HDM; Greer Laboratories) allergen extract in 80 μL phosphate buffered saline (PBS) on day 0 or using PBS only. Ten days later, anesthetized mice were challenged with 1-10 μg HDM in 50 μL PBS intranasally (i.n.) for 5 consecutive days. Mice were sacrificed 24 hr after last challenge and broncho alveolar lavage was performed by flushing the lungs 3 times with 1 ml PBS containing Ethylenediaminetetraacetic acid (EDTA, Sigma-Aldrich).
# Different treatment modalities were testes i.e. route and dose. Here we tested the oral versus intratracheal route (FIG. 1) and PBS versus enoximone in a HDM driven allergy model. Enoximone was precipitated from Perfan®. The precipitant was admitted with HDM solution and used as a suspension for intratracheal treatment doses 25 μg and 250 μg or it was used as a suspension admitted in PBS for oral treatment doses 250 μg or 2.5 mg. Mice underwent enoximone treatment only during challenge. Sensitization was performed with 1 μg HDM and challenge with 2.5-5 μg HDM. Twenty-four hours after the last challenge measurements were performed.
# Optimal dose of 25 μg enoximone versus diluent (FIG. 5) was admitted with 5 μg HDM solution and used for intratracheal treatment or diluent (10% ethanol+40% glycerol+50% MQ) admitted with 5 μg HDM solution. Controls were treated with enoximone 25 μg admitted with PBS or diluent admitted with PBS. Mice underwent enoximone treatment only during challenge.
# (A) Experimental HDM asthma design showing intratracheal sensitization (s) of 1 μg HDM or PBS as control and five intra-nasal challenges (c) with 2.5-5 μg HDM. (B) Quantification of flow cytometric analyses of the indicated populations of eosinophils in bronchoalveolar lavage (BAL) of PBS treated mice (black bars) and enoximone treated mice (white and greyscale bars). Results are expressed as means±SEM. (C) Quantification of flow cytometric analyses of ILC2 numbers in BAL. Results are expressed as means±SEM. Results represent data of one out of 2 experiments with 3-8 animals per group. Statistical evaluations were performed only between different treatments of groups. *p<0.05, **p<0.01).
# (A) Experimental HDM asthma design showing intratracheal sensitization (s) of 1 μg HDM or PBS as control and intra nasal challenge (c) with 5 μg HDM. (B) Quantification of flow cytometric analyses of eosinophils in BAL of PBS treated mice (black bars) and enoximone treated mice (light grey bars). Results are expressed as means±SEM. (C) Quantification of flow cytometric analyses of neutrophils and (D) ILC2s in BAL. Results are expressed as means±SEM. n=4-8 animals per group. Statistical evaluations were performed only between different treatments of groups (*p<0.05 or **p<0.01).
# [2] = oral or intratracheal enoximone
smiles,measurement,setting,value
"CSc1ccc(C(=O)c2[nH]c(=O)[nH]c2C)cc1 [enoximone, 1,3-dihydro-4-methyl-5-[4-(methylthio)benzoyl]-2H-imidazol-2-on]",symptom-free period,patients with asthma; Trial 1: after a single administration of 25 mg intravenously,two months
same,time to disappearance of asthma symptoms,"patients with asthma; Trial 1: person, difficult-to-treat asthma, 25 mg intravenously",within a few minutes
same,symptom-free period,patients with asthma; Trial 2: after 20 mg orally in two doses of 10 mg at a 15 minutes interval,7 days
same,symptom-free period,patients with asthma; Trial 2: after another 10 mg dose orally after 7 days,7 days
same,time until able to perform normal household activities and go back to work,patients with asthma; Trial 2: maintenance dose of 10 mg once every 4 days,3 months
same,prednisone use after reduction,patients with asthma; Trial 2: previously 50 mg prednisone per day,5 mg per day
same,time to disappearance of asthma symptoms,"patients with asthma; Trial 2: untreatable asthma, after first oral dose of 10 mg",within two minutes
same,progress of patients with light to severe asthma symptoms,"patients with asthma; Trial 3: 0.1 to 0.3 mg/kg body weight, mostly twice a week",remarkable and fast progress
same,allergic and immune-related symptoms,patients with asthma; Trial 3: five patients,substantially milder or even disappeared altogether
same,time to improved breathing,patients with asthma; administered orally in cases of asthma,within ten minutes
same,time to reaction,patients with asthma; all the patients treated,within a few minutes
same,symptom-free period,"patients with asthma; all the patients treated, after only one dose",remained days or weeks symptom-free
same,duration of improvement of the dyspnoea symptoms,patients with asthma; as maintenance medication,from a few days to several weeks or several months
same,duration of the effects of the compound,patients with asthma; compared with the half life of 4 hours,lasting well beyond a month
same,side effects,"patients with asthma; disappeared after one day, lowering the dose offered a solution",two patients reported headaches on the day of intake
same,time to improved breathing,patients with asthma; intravenous administration in cases of asthma,within as little as one minute
same,neutrophil numbers in BAL,"[1]; 25 μg enoximone intratracheally, FIG. 6C, same pattern as eosinophils",the same dynamic is observed
same,ILC2 cell numbers in BAL,"[1]; 25 μg enoximone intratracheally, FIG. 6D, same pattern as eosinophils",the same dynamic is observed
same,"numbers of BAL eosinophils, HDM/diluent treated mice compared to enoximone treated mice","[1]; 25 μg enoximone solution admitted to 5 μg HDM, intratracheally, FIG. 6B",significantly higher
same,allergic airway inflammation in control mice,"[1]; PBS/enoximone (25 μg) control mice, no HDM",no signs of allergic airway inflammation
same,eosinophilic airway inflammation in control mice,"[1]; PBS/enoximone control mice, no HDM",no eosinophilic airway inflammation
same,"eosinophil numbers in BAL, HDM/PBS treated mice compared to enoximone treated mice","[1]; intratracheally (25 and 250 μg), treatment during challenge, FIG. 5B",significantly higher
same,"DCs, PBS treated allergy mice compared to enoximone treated mice",[1]; [2],significantly higher in the PBS treated allergy mice
same,"Neutrophils, PBS treated allergy mice compared to enoximone treated mice",[1]; [2],significantly higher in the PBS treated allergy mice
same,"T-cells, PBS treated allergy mice compared to enoximone treated mice",[1]; [2],significantly higher in the PBS treated allergy mice
same,ILC2 numbers in BAL,"[1]; oral or intratracheal enoximone, FIG. 5C",reduced
